# Results published in publication PMC6979384, “Characterization of the plant homeodomain (PHD) reader family for their histone tail interactions” (Epigenetics & Chromatin, 2020).
# Columns and labels:
# Assay in all cases: Histone peptide microarray
# Assay type in all cases: binding, human
# PHF21A = settings: sheet "Array Heatmap"; GST-tagged PHF21A; arrays performed twice, total replicate number n = 4
# Method in brief: (§1)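 Readout is array binding signal, reported as the mean and standard deviation over four replicates. Each purified GST-fused PHD domain was incubated at 0.5 μM with a library of 293 modified histone peptides.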
# MLL5 = settings: sheet "Array Heatmap"; GST-tagged MLL5; arrays performed twice, total replicate number n = 4
# Method in brief: as §1
# PHF2 = settings: sheet "Array Heatmap"; GST-tagged PHF2; arrays performed twice, total replicate number n = 4
# Method in brief: as §1
# SP140L = settings: sheet "Array Heatmap"; GST-tagged SP140L; arrays performed twice, total replicate number n = 4
# Method in brief: as §1
# KDM5A (1) = settings: sheet "Array Heatmap"; GST-tagged KDM5A (1); arrays performed twice, total replicate number n = 4
# Method in brief: as §1
# RAG2 = settings: sheet "Array Heatmap"; GST-tagged RAG2; arrays performed twice, total replicate number n = 4
# Method in brief: as §1
# KDM4C (TTP) = settings: sheet "Array Heatmap"; GST-tagged KDM4C (TTP); arrays performed twice, total replicate number n = 4
# Method in brief: as §1
# ING3 = settings: sheet "Array Heatmap"; GST-tagged ING3; arrays performed twice, total replicate number n = 4
# Method in brief: as §1
# MORC3 (CW) = settings: sheet "Array Heatmap"; GST-tagged MORC3 (CW); arrays performed twice, total replicate number n = 4
# Method in brief: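 Each reader, produced as a GST fusion and purified, was tested at 0.5 μM on synthetic histone peptides (293 in total) carrying single or combinatorial marks. Intensities averaged over four replicates.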
# TRIM66 (PB) = settings: sheet "Array Heatmap"; GST-tagged TRIM66 (PB); arrays performed twice, total replicate number n = 4
# Method in brief: as §1
# CHD4 (PPCC) = settings: sheet "Array Heatmap"; GST-tagged CHD4 (PPCC); arrays performed twice, total replicate number n = 4
# Method in brief: as §1
# KDM5B (3) = settings: sheet "Array Heatmap"; GST-tagged KDM5B (3); arrays performed twice, total replicate number n = 4
# Method in brief: as §1
# ING4 = settings: sheet "Array Heatmap"; GST-tagged ING4; arrays performed twice, total replicate number n = 4
# Method in brief: as §1
# BAZ2B = settings: sheet "Array Heatmap"; GST-tagged BAZ2B; arrays performed twice, total replicate number n = 4
# Method in brief: as §1
# DPF2 (PPC2W2) = settings: sheet "Array Heatmap"; GST-tagged DPF2 (PPC2W2); arrays performed twice, total replicate number n = 4
# Method in brief: as §1
# PHF23 = settings: sheet "Array Heatmap"; GST-tagged PHF23; arrays performed twice, total replicate number n = 4
# Method in brief: as §1
# DIDO1 = settings: sheet "Array Heatmap"; GST-tagged DIDO1; arrays performed twice, total replicate number n = 4
# Method in brief: as §1
# PHF13 = settings: sheet "Array Heatmap"; GST-tagged PHF13; arrays performed twice, total replicate number n = 4
# Method in brief: as §1
# CHD5 (PCC) = settings: sheet "Array Heatmap"; GST-tagged CHD5 (PCC); arrays performed twice, total replicate number n = 4
# Method in brief: as §1
# KDM5A (3) = settings: sheet "Array Heatmap"; GST-tagged KDM5A (3); arrays performed twice, total replicate number n = 4
# Method in brief: as §1
# PHF8 = settings: sheet "Array Heatmap"; GST-tagged PHF8; arrays performed twice, total replicate number n = 4
# Method in brief: as §1
# ING1 = settings: sheet "Array Heatmap"; GST-tagged ING1; arrays performed twice, total replicate number n = 4
# Method in brief: as §1
# ING2 = settings: sheet "Array Heatmap"; GST-tagged ING2; arrays performed twice, total replicate number n = 4
# Method in brief: as §1
# CHD5 (PPCC) = settings: sheet "Array Heatmap"; GST-tagged CHD5 (PPCC); arrays performed twice, total replicate number n = 4
# Method in brief: as §1
# AIRE (PP) = settings: sheet "Array Heatmap"; GST-tagged AIRE (PP); arrays performed twice, total replicate number n = 4
# Method in brief: as §1
# KDM5B (1) = settings: sheet "Array Heatmap"; GST-tagged KDM5B (1); arrays performed twice, total replicate number n = 4
# Method in brief: as §1
# ING5 = settings: sheet "Array Heatmap"; GST-tagged ING5; arrays performed twice, total replicate number n = 4
# Method in brief: as §1
# KDM7A = settings: sheet "Array Heatmap"; GST-tagged KDM7A; arrays performed twice, total replicate number n = 4
# Method in brief: as §1
# PHRF1 (RP) = settings: sheet "Array Heatmap"; GST-tagged PHRF1 (RP); arrays performed twice, total replicate number n = 4
# Method in brief: as §1
# TAF3 = settings: sheet "Array Heatmap"; GST-tagged TAF3; arrays performed twice, total replicate number n = 4
# Method in brief: as §1
# BPTF (PB) = settings: sheet "Array Heatmap"; GST-tagged BPTF (PB); arrays performed twice, total replicate number n = 4
# Method in brief: as §1
substance,measurement,setting,value
H3.3K27me3: H3.3 15-34 [Peptide H3.3K27me3],"Array Heatmap signal, PHF21A",PHF21A,0.5192
same,"Array Heatmap signal, MLL5",MLL5,0.5722
same,"Array Heatmap signal, PHF2",PHF2,0.5285
same,"Array Heatmap signal, SP140L",SP140L,0.3923
same,"Array Heatmap signal, KDM5A (1)",KDM5A (1),0.5261
same,"Array Heatmap signal, RAG2",RAG2,0.2705
same,"Array Heatmap signal, KDM4C (TTP)",KDM4C (TTP),0.5632
same,"Array Heatmap signal, ING3",ING3,0.5349
same,"Array Heatmap signal, MORC3 (CW)",MORC3 (CW),0.4234
same,"Array Heatmap signal, TRIM66 (PB)",TRIM66 (PB),0.6617
same,"Array Heatmap signal, CHD4 (PPCC)",CHD4 (PPCC),0.5987
same,"Array Heatmap signal, KDM5B (3)",KDM5B (3),0.5372
same,"Array Heatmap signal, ING4",ING4,0.5176
same,"Array Heatmap signal, BAZ2B",BAZ2B,0.5914
same,"Array Heatmap signal, DPF2 (PPC2W2)",DPF2 (PPC2W2),0.7311
same,"Array Heatmap signal, PHF23",PHF23,0.6091
same,"Array Heatmap signal, DIDO1",DIDO1,0.7249
same,"Array Heatmap signal, PHF13",PHF13,0.7006
same,"Array Heatmap signal, CHD5 (PCC)",CHD5 (PCC),0.8198
same,"Array Heatmap signal, KDM5A (3)",KDM5A (3),0.4949
same,"Array Heatmap signal, PHF8",PHF8,0.4126
same,"Array Heatmap signal, ING1",ING1,0.5843
same,"Array Heatmap signal, ING2",ING2,0.6109
same,"Array Heatmap signal, CHD5 (PPCC)",CHD5 (PPCC),0.6383
same,"Array Heatmap signal, AIRE (PP)",AIRE (PP),0.536
same,"Array Heatmap signal, KDM5B (1)",KDM5B (1),0.6871
same,"Array Heatmap signal, ING5",ING5,0.4224
same,"Array Heatmap signal, KDM7A",KDM7A,0.3849
same,"Array Heatmap signal, PHRF1 (RP)",PHRF1 (RP),0.5177
same,"Array Heatmap signal, TAF3",TAF3,0.2913
same,"Array Heatmap signal, BPTF (PB)",BPTF (PB),0.4048
